Experimental data reported in PMC7865627, “Small Molecule-Based Prodrug Targeting Prostate Specific Membrane Antigen for the Treatment of Prostate Cancer” (Cancers, 2021).
*1 amine or outer side, *2 acyl side, *3 side chain or, on linkers, in order; H or OH if unused. Where a SMILES comes first, the peptide text is derived from it. Bridges are numbered along the chain shown (N, C = ends). Roman numbers before positions name the chains, in order. [ ]: non-standard residue; d: D form. The star is where a group is joined. Hexanoyl(6-succinimido-3yl) = O=C1CC([*:1])C(=O)N1CCCCCC(=O)[*:2]; Dolaproine = CO[C@@H]([C@@H]1CCCN1)[C@@H](C)C(=O)O; Dil = CC[C@H](C)[C@H](NC)[C@@H](CC(=O)O)OC; γGlu = O=C(O)[C@H](CCC(=O)[*:2])N[*:1]; PABC = O=C(OCc1ccc(N[*:1])cc1)[*:2]; X2 = C[C@@H](N*)[C@@H](O)c1ccccc1; X1 = O=C(C1CCC(CN[*:1])CC1)[*:2]; Cit = NC(=O)NCCC[C@H](N)C(=O)O; NMeV = CN[C@H](C(=O)O)C(C)C; CO = O=C([*:1])[*:2]; Ahx = NCCCCCC(=O)O

Key:
PSMA = target: T1, PSMA (Homo sapiens, UniProt Q04609); test: Competitive binding assay against 3H-ZJ24 on PC3pip cells
T1 construct: expressed in transfected cells; host or cells: PC3pip cells (PC3 retrovirally transfected with PSMA), from Dr. Michel Sadelain, MSKCC
Method: The assay was carried as previously reported by incubation PC3pip cells with different concentrations of drug conjugates in the presence of 10 nM N-[N-[(S)-1,3-dicarboxypropyl]carbamoyl]-S-[^3H]-methyl-L-cysteine (^3H-ZJ24) (GE Healthcare Life Sciences, Chicago, IL, USA). Radioactivity of cell pellet was counted by scintillation counter. The concentration required to inhibit 50% of binding was determined (IC50) by GraphPad Prism 3.0.

heterotopic C4-2 tumors = test: Heterotopic C4-2 tumor study; format: in vivo, mouse; conditions: 1910 nmol/kg every 4 days, five doses, 7 animals
Excerpt: To show versatility of the antitumor activity of PSMA-1-VcMMAE, we also tested it in mice bearing heterotopic C4-2 tumors, which are androgen-independent prostate cancer cells endogenously expressing PSMA. […]
drugs through tail vein inject every 4 days with total of 5 injections as indicated by the red arrows.
[…] Values are mean ± SD of 5 animals. The plots stopped when animals died during the experiments since values are represent as mean ± SD of 5 animals.
(nmol/kg) Tumor Growth (nmol/kg) Therapeutic Index *
*: Therapeutic index is defined by MTD/effective dose.
PC3flu tumors. Treatment were scheduled every 4 days with a total of five doses as indicated by the […]
red arrow. […] For tumor growth curves and body weight curves, values are mean ± SD of 5 animals. The plots stopped when animals died during the experiments since values are represent as mean ± SD of 5 animals. (A) Tumor growth curves of mice treated with 955 nmol/kg of PSMA-1-VcMMAE. (B) Comparison of the potency of PSMA-1-VcMMAE to treat PC3pip (solid line) and PC3flu tumors (dashed line) at the dose of 955 nmol/kg. (☀, PC3pip treated versus PC3pip PBS, p = 0.0005; ★, PC3pip treated versus PC3flu PBS, p = 0.0242; ♣, PC3pip treated versus PC3flu treated, p = 0.0493). (C) Body weight changes of mice treated with 955 nmol/kg of PSMA-1-VcMMAE.
Figure 9. PSMA-1-VcMMAE was effective in heterotopic C4-2 tumor model. […]

T1 sequence (Q04609 whole entry): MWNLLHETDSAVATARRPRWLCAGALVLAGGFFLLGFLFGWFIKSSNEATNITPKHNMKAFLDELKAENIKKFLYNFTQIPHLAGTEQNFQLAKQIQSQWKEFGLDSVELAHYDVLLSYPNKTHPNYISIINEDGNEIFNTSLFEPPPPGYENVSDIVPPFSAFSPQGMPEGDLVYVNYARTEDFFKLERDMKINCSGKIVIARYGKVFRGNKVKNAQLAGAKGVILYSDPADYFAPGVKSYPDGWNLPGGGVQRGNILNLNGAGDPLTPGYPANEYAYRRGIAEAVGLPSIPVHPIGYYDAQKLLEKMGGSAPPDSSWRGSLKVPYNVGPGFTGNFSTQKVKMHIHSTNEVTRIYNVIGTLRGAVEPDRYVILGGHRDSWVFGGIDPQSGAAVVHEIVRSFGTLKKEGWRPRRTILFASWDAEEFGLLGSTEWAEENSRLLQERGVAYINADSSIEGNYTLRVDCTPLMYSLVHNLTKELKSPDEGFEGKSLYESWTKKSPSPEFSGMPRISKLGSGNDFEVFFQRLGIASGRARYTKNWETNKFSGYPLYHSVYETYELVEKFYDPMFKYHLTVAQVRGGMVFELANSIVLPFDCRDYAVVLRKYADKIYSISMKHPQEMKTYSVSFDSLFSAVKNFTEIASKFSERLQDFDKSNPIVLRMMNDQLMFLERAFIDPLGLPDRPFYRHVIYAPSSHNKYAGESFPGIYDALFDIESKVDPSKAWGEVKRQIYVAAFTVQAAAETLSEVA

`CC[C@H](C)[C@@H]([C@@H](CC(=O)N1CCC[C@H]1[C@H](OC)[C@@H](C)C(=O)N[C@H](C)[C@@H](O)c1ccccc1)OC)N(C)C(=O)[C@@H](NC(=O)[C@H](C(C)C)N(C)C(=O)OCc1ccc(NC(=O)[C@H](CCCNC(N)=O)NC(=O)[C@@H](NC(=O)CCCCCN2C(=O)CC(SC[C@H](NC(=O)[C@@H](CCC(=O)O)NC(=O)[C@@H](CCC(=O)O)NC(=O)[C@@H](CCC(=O)O)NC(=O)CCCCCNC(=O)C3CCC(CNC(=O)CC[C@H](NC(=O)N[C@@H](CCC(=O)O)C(=O)O)C(=O)O)CC3)C(=O)NCCCCCC(=O)N[C@@H](CCCCN)C(N)=O)C2=O)C(C)C)cc1)C(C)C` (some centres unmarked) [PSMA-1-VcMMAE] (I: {Glu-CO-γGlu}-[X1][Ahx][dE][dE][dE]C[Ahx]K-NH2 / II: V[Cit][PABC][NMeV]V[Dil][Dolaproine]-X2; linker I:6-II:N via Hexanoyl(6-succinimido-3yl)) was tested, and the IC50 (PSMA) was 4.34 nM and the “cures, C4-2 tumors” value (heterotopic C4-2 tumors) was 2 / 7.
